{
  "source": "patent US20160340324A1",
  "about": "“METHODS AND COMPOSITIONS FOR TREATING CANCER” (Sanford-Burnham Medical Research Institute, priority 2013, published 2016)",
  "key": {"RXRα": {"molecular_target": "T1, RXRα (Homo sapiens, UniProt P19793)", "T1 construct": "expressed in transfected cells; host or cells: CV-1 African green monkey kidney cells", "T1 sequence (P19793 1-462)": "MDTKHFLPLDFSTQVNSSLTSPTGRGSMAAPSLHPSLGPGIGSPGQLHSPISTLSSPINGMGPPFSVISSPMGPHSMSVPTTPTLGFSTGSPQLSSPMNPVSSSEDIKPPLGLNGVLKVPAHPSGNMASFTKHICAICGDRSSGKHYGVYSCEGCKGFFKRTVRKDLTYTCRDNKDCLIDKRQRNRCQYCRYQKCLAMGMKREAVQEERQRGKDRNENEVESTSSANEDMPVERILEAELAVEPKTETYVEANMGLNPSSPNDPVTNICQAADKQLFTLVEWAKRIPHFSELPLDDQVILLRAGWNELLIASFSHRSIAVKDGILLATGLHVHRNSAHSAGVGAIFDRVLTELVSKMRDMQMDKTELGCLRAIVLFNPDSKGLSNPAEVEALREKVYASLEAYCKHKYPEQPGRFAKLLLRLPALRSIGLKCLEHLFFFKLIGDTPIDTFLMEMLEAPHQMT", "assay": "CAT reporter assay with (TREpal)2-tk-CAT and RXRα transfected into CV-1 cells", "type": "cell-based", "conditions": "9-cis-RA 10^-7 M, BI-1003 1 μM", "method": "FIGS. 2A and 2B are graphs of relative CAT activity. (TREpal)2-tk-CAT and RXRα were transiently transfected into CV-1 cells. […] CAT activity was determined. […] Error bars represent SEM. FIG. 2C is a graph of relative LUC activity. pBind-RXRα-LBD and pG5luc were transiently transfected into HCT-116 cells. […] Luciferase activity was determined."}, "RXRα-LBD": {"molecular_target": "T2, RXRα-LBD (Homo sapiens, UniProt P19793)", "T2 construct": "expressed in transfected cells; host or cells: HCT-116", "T2 sequence (P19793 227-458 limits assumed)": "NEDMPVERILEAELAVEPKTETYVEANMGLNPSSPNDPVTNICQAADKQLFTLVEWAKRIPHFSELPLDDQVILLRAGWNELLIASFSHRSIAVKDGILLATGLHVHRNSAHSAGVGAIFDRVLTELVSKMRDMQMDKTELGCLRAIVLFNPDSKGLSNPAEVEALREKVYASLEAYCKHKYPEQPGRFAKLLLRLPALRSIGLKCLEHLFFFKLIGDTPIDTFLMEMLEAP", "assay": "Mammalian one hybrid: Gal4-RXRα-LBD chimera (pBind-RXRα-LBD) and pG5luc reporter in HCT-116 cells", "type": "cell-based", "conditions": "9-cis-RA 10^-7 M, BI-1003 1 μM, K-8008 and K-8012 50 μM", "method": "FIGS. 2A and 2B are graphs of relative CAT activity. (TREpal)2-tk-CAT and RXRα were transiently transfected into CV-1 cells. […] CAT activity was determined. […] Error bars represent SEM. FIG. 2C is a graph of relative LUC activity. pBind-RXRα-LBD and pG5luc were transiently transfected into HCT-116 cells. […] Luciferase activity was determined. […] HCT-116 cells seeded in 24-well plates were transiently transfected with 50 ng pG5luc, 25 ng pBind-RXRα-LBD. […] Cells were washed, lysed and assayed by using the Dual-Luciferase Reporter Assay System (Promega). Transfection efficiency was normalized to Renilla luciferase activity."}, "[1]": {"tested_on": "A549 lung cancer, PC3 prostate cancer, ZR-75-1 and MB231 breast cancer cells", "assay": "MTT cell viability / growth inhibition assay", "type": "cell-based, human", "conditions": "48 h", "method": "(§1) Cell viability was measured by the MTT colorimetric assay. FIG. 3B depicts inhibition of TNFα-induced AKT activation. […] Phosphorylated AKT and total AKT were analyzed by immunoblotting.\nFIGS. 8A-C are a series of graphs depicting that sulindac and other compounds induce apoptosis of cancer cells. FIG. 8A is a PC3 prostate cancer cell line. FIG. 8B is a ZR-75-1 breast cancer cell line, and FIG. 8C is a MDA-MB-231 breast cancer cell line. Each were treated with the indicated concentration of Sulindac or other compounds for 48 h. Cell viability was determined by the MTT assay.\nConfluent cells cultured in 96-well dishes were treated with various concentrations of compounds for 48 h. The cells were then incubated with 2 mg/mL (3-(4,5-Dimethylthiazol-2-yl)-2,5-diphenyltetrazolium bromide (MTT) for 4 h at 37° C. MTT solution was then aspirated and formazan in cells was instantly dissolved by addition of 150 μL DMSO each well. Absorbance was measured at 570 nm."}, "[2]": {"tested_on": "TNFα-induced AKT activation in A549 lung cancer cells", "assay": "Inhibition of TNFα-induced AKT activation, immunoblotting", "type": "cell-based, human", "conditions": "pretreated 1 h, TNFα 10 ng/mL 30 min", "method": "as §1\nZR-75-1 and MB231 breast cancer cells (FIG. 8). A unique property of Sulindac and other compounds are their ability to inhibit TNFα-induced AKT activation (Zhou et al, 2010). […] Similar results were obtained in other cancer cell lines (FIG. 9).\nCells were lysed and equal amounts of the lysates were electrophoresed on 10% SDS-PAGE gels and transferred onto PVDF membranes (Millipore). The membranes were blocked with 5% skimmed milk in TBST [50 mM Tris-HCl (pH7.4), 150 mM NaCl and 0.1% Tween20] for 1 h, then incubated with primary antibodies and secondary antibodies and detected using ECL system (Thermo). The dilutions of the primary antibodies were anti-RXRα (AN 197, Santa Cruz) in 1:1000, anti-PARP(H-250. Santa Cruz) in 1:3000, anti-p85α (Millipore) in 1:1000, anti-p-AKT (D9E, Cell Signaling Technology) in 1:1000, anti-AKT 1/2/3 (H-136, Santa Cruz) in 1:1000, anti-β-actin (Sigma) in 1:5000, anti-c-myc (9E10, Santa Cruz), anti-Flag (FI 804, Sigma)."}, "A549 cells": {"tested_on": "A549 cells", "assay": "PARP cleavage (apoptosis) with or without TNFα, immunoblotting", "type": "cell-based, human", "conditions": "4 h; for PARP cleavage, combination with TNFα: 40 μM compound plus TNFα 10 ng/mL"}, "HepG2 tumor xenografts": {"tested_on": "HepG2 tumor xenografts", "assay": "HepG2 tumor xenografts in nude mice", "type": "in vivo", "conditions": "for apparent toxic effects such as loss of body weight: 20 mg/kg daily for 12 days, body weight every 3 days; for reduction of tumor weight: 20 mg/kg intraperitoneally once a day, 12-day treatment", "method": "FIGS. 4A-4F depict inhibition of HepG2 tumor growth in animals. FIG. 4A is a photograph of tumors. FIG. 4B is a graph of tumor volume. FIG. 4C is a graph of tumor weight. […] Tumors were removed and measured. Tumor sizes and weights in control, K-80003 and K-8008-treated mice were compared. FIG. 4D is a Western blot. Lysates prepared from three tumors treated with vehicle or K-8008 were analyzed by Western blotting assay for p-AKT expression. FIG. 4E is a series of photomicrographs. H&E staining and TUNEL assay. Tumor sections were stained for H&E or TUNEL by immunohistochemistry. […]. FIG. 4F is a graph of body weight. […]. Body weight was measured every three days. Each point represents the mean±standard deviation of six mice. The differences between the compound treated group and control group are not significant (P>5%).\n[…]. Nude mice (BALB/c, SPF grade. 16-18 g, 4-5-week old) were housed at 28° C. in a laminar flow under sterilized conditions. Mice were injected subcutaneously with 100 μL HepG2 cells ([…]). […]. Body weight and tumor size were measured every 3 days. Mice were sacrificed after 12-day drug treatment and the tumors removed for various assessments.\nParaffin wax embedded tumors were cut into 5 |iM-thick sections. These sections were deparaffinized and stained with hematoxylin and eosin (H&E) according to the standard protocol. Tumor sections of HepG2 xenografts were also stained with TUNEL for assessing spontaneous apoptosis according to the manufacturer's instructions (In situ Cell Death Detection Kit; Roche). The images were taken under a fluorescent microscope (Carl Zeiss)."}, "human RXRα-LBD": {"molecular_target": "T3, human RXRα-LBD (Homo sapiens, UniProt P19793)", "T3 sequence (P19793 223-462)": "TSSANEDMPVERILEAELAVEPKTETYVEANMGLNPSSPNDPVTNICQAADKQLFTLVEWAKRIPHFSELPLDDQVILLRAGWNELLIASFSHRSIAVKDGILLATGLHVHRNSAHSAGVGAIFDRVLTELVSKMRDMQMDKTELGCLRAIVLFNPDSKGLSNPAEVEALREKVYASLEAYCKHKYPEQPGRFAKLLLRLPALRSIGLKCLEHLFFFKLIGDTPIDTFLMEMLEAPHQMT", "assay": "Ligand-binding competition assay with [3H]9-cis-RA", "conditions": "[3H]-9-cis-RA 7.5 nM"}, "cancer cells": {"tested_on": "cancer cells", "conditions": "literature (Weggen 2001; Yamamoto 1999; Zhang 2000); cited from earlier work"}},
  "data": [
    {"smiles": "CCCOc1cc2c(cc1C(=C1CC1)c1ccc(C(=O)O)cc1)C(C)(C)CCC2(C)C", "note": "[BI-1003]", "values": [
      {"measurement": "inhibition of 9-cis-RA-induced TREpal reporter activity", "setting": "RXRα", "result": "inhibited"},
      {"measurement": "inhibition of 9-cis-RA-induced Ga14 reporter activation", "setting": "RXRα-LBD", "result": "inhibited"}
    ]},
    {"smiles": "CC1=C(CCc2nnn[nH]2)c2cc(F)ccc2/C1=C\\c1ccc(C(C)C)cc1", "note": "[Compound K-8012, (Z)-5-(2-(5-Fluoro-1-(4-isopropylbenzylidene)-2-methyl-1H-inden-3-yl)ethyl)-1H-tetrazole]", "values": [
      {"measurement": "inhibition of growth of cancer cells compared to Sulindac", "setting": "[1]", "result": "much more effective"},
      {"measurement": "TNFα-induced AKT activation", "setting": "[2]", "result": "suppressed in a dose dependent manner"},
      {"measurement": "PARP cleavage, combination with TNFα", "setting": "A549 cells", "result": "could convert TNFα signaling from survival to death"}
    ]},
    {"smiles": "CC1=C(CC(=O)O)c2cc(F)ccc2/C1=C\\c1ccc(C(C)C)cc1", "note": "[Compound K-80003, reference compound]", "values": [
      {"measurement": "apparent toxic effects such as loss of body weight", "setting": "HepG2 tumor xenografts", "result": "did not show any apparent toxic effects"},
      {"measurement": "reduction of tumor weight", "setting": "HepG2 tumor xenografts", "result": 54.84, "unit": "%"},
      {"measurement": "competition with [3H]9-cis-RA for binding to the LBP of RXRα", "setting": "human RXRα-LBD", "result": "competed well"}
    ]},
    {"smiles": "CC1=C(CCc2nnn[nH]2)c2ccccc2/C1=C\\c1ccc(C(C)C)cc1", "note": "[Compound K-8008, (Z)-5-(2-(1-(4-iso-Propylbenzylidene)-2-methyl-1H-inden-3-yl)ethyl)-1H-tetrazole]", "values": [
      {"measurement": "inhibition of growth of cancer cells compared to Sulindac", "setting": "[1]", "result": "much more effective"},
      {"measurement": "TNFα-induced AKT activation", "setting": "[2]", "result": "suppressed in a dose dependent manner"},
      {"measurement": "PARP cleavage, combination with TNFα", "setting": "A549 cells", "result": "could convert TNFα signaling from survival to death"},
      {"measurement": "apoptosis in tumor sections, TUNEL staining", "setting": "HepG2 tumor xenografts; 20 mg/kg", "result": "induction of apoptosis"},
      {"measurement": "apparent toxic effects such as loss of body weight", "setting": "HepG2 tumor xenografts", "result": "did not show any apparent toxic effects"},
      {"measurement": "growth of HepG2 tumor", "setting": "HepG2 tumor xenografts; 20 mg/kg intraperitoneally daily", "result": "inhibited the growth of HepG2 tumor in a time dependent manner"},
      {"measurement": "reduction of tumor weight", "setting": "HepG2 tumor xenografts", "result": 61.23, "unit": "%"},
      {"measurement": "AKT activation (p-AKT) in tumors, Western blotting", "setting": "HepG2 tumor xenografts; three tumors, 20 mg/kg", "result": "reduction of AKT activation"}
    ]},
    {"smiles": "CC1=C(CC(=O)O)c2cc(F)ccc2/C1=C\\c1ccc([S+](C)[O-])cc1", "note": "(stereo not shown) [Sulindac, reference compound]", "values": [
      {"measurement": "PARP cleavage, combination with TNFα", "setting": "A549 cells", "result": "significant induction of PARP cleavage"},
      {"measurement": "PARP cleavage, compound alone", "setting": "A549 cells; 40 μM, 1% FBS", "result": "slightly induced PARP cleavage"},
      {"measurement": "concentration normally used to achieve anti-cancer effects", "setting": "cancer cells", "result": "About 100 μM"}
    ]}
  ]
}
